From ChEMBL document CHEMBL4680362, “Androgen Receptor Protein Degradation in the Treatment of Castration-Resistant Prostate Cancer” (ACS Med Chem Lett, 2021)

Assays:
[1] = target: T1, von Hippel-Lindau disease tumor suppressor/Androgen receptor (Homo sapiens) (UniProt P10275+P40337); assay: Protac activity at VHL/AR in human LNCaP cells assessed as degradation of AR at 0.1 uM measured after 6 hrs by Western blot analysis relative to control; assay type: cell-based
[2] = target: T1, von Hippel-Lindau disease tumor suppressor/Androgen receptor (Homo sapiens); assay: Protac activity at VHL/AR in human LNCaP cells assessed as degradation of AR at 0.01 uM measured after 6 hrs by Western blot analysis relative to control; assay type: cell-based

T1 sequence (P10275 whole entry, looked up): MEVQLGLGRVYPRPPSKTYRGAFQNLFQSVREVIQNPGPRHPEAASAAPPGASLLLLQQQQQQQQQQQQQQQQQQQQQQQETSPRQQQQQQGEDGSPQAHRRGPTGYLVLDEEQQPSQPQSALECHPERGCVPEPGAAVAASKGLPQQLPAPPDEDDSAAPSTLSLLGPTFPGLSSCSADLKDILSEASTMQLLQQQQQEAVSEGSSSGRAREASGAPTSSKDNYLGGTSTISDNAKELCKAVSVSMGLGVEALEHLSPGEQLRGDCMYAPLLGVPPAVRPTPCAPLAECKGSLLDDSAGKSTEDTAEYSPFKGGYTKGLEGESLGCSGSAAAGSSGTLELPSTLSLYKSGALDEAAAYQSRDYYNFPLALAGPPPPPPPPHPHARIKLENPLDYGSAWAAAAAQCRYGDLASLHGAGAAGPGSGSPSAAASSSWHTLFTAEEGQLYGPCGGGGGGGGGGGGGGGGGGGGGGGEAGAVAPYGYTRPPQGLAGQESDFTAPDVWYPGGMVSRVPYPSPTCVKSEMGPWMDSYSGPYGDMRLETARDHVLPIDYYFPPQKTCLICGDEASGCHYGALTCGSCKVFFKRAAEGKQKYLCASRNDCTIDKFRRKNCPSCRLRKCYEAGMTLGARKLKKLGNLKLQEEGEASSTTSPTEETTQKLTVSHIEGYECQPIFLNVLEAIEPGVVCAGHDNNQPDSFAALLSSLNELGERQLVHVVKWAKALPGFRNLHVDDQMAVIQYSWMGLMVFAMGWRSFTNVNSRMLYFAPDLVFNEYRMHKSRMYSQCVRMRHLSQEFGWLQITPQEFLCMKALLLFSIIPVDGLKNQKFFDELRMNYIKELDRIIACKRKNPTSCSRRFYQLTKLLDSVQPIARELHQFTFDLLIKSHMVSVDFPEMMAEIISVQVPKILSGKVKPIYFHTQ
T1 sequence (P40337 whole entry, looked up): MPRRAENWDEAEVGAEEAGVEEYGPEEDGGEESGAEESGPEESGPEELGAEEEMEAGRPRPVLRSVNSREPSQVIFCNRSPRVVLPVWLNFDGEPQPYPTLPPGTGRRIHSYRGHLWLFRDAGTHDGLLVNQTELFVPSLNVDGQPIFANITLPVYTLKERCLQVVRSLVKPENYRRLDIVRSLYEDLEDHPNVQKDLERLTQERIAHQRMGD

Activity [1] [%]	Activity [2] [%]	Structure (SMILES)
2		CC1(C)[C@H](NC(=O)c2ccc(C#CC3CCN(C4CCN(c5cccc6c5C(=O)N(C5CCC(=O)NC5=O)C6=O)CC4)CC3)cc2)C(C)(C)[C@H]1Oc1ccc(C#N)c(Cl)c1 (some centres undefined)
80	38	Cc1cc([C@H](C(=O)N2C[C@H](O)C[C@H]2C(=O)N[C@@H](CC(=O)NN2CCC(N3CCC(C#Cc4ccc(N5C(=S)N(c6cnc(C#N)c(C(F)(F)F)c6)C(=O)C56CCC6)cc4)CC3)CC2)c2ccc(-c3scnc3C)cc2)C(C)C)on1
65		Cc1cc([C@H](C(=O)N2C[C@H](O)C[C@H]2C(=O)N[C@@H](CC(=O)N2CCC(N3CCC(C#Cc4ccc(Cc5c(C)nn(-c6ccc(C#N)c(Cl)c6)c5C)cc4)CC3)CC2)c2ccc(-c3scnc3C)cc2)C(C)C)on1
99	76	Cc1ncsc1-c1ccc([C@H](CC(=O)N2CCC(N3CCC(C#Cc4ccc(C(=O)N[C@H]5C(C)(C)[C@H](Oc6ccc(C#N)c(Cl)c6)C5(C)C)cc4)CC3)CC2)NC(=O)[C@@H]2C[C@@H](O)CN2C(=O)[C@@H](NC(=O)C2(C#N)CC2)C(C)(C)C)cc1
99	89	Cc1ncsc1-c1ccc([C@H](CC(=O)N2CCC(N3CCC(C#Cc4ccc(C(=O)N[C@H]5C(C)(C)[C@H](Oc6ccc(C#N)c(Cl)c6)C5(C)C)cc4)CC3)CC2)NC(=O)[C@@H]2C[C@@H](O)CN2C(=O)[C@@H](NC(=O)C2(F)CC2)C(C)(C)C)cc1
81	20	Cc1cc([C@H](C(=O)N2C[C@H](O)C[C@H]2C(=O)N[C@@H](CC(=O)NN2CCC(N3CCC(C#Cc4ccc(N5C(=S)N(c6ccc(C#N)c(C(F)(F)F)c6)C(=O)C5(C)C)cc4)CC3)CC2)c2ccc(-c3scnc3C)cc2)C(C)C)on1
98	76	Cc1cc([C@H](C(=O)N2C[C@H](O)C[C@H]2C(=O)N[C@@H](CC(=O)N2CCC(N3CCC(C#Cc4ccc(C(=O)N[C@H]5C(C)(C)[C@H](Oc6ccc(C#N)c(Cl)c6)C5(C)C)cc4)CC3)CC2)c2ccc(-c3scnc3C)cc2)C(C)C)on1
77	39	CC(=O)N[C@H](C(=O)N1C[C@H](O)C[C@H]1C(=O)N[C@@H](CC(=O)N1CCC(N2CCC(C#Cc3ccc(C(=O)N[C@H]4C(C)(C)[C@H](Oc5ccc(C#N)c(Cl)c5)C4(C)C)cc3)CC2)CC1)c1ccc(-c2scnc2C)cc1)C(C)(C)C
